{"source": "patent US10251835B2", "about": "“Cranial delivery of pharmaceuticals” (GLIA, LLC, priority 2013, dated 2019)", "test_system": "patients with dyslexia", "assay": "Treatment of dyslexia and impaired executive brain function exacerbated by traumatic brain injury", "assay_type": "in vivo, human", "conditions": "person", "experimental": "A patient had been diagnosed in childhood with dyslexia. Symptoms included unstable binocular fixation while reading, the inability without compensating to find the end of one line and beginning of the next, and double overlapping perception of lines of print. They were also unable to read aloud in a fluid manner.\nThe individual applied a topical gel containing 4% by weight progesterone (4 mg of drug) to the forehead area.\nThe application was repeated twice over the next few days and the patient tested themself by reading text.\nRegular treatment was continued for 10 weeks with the 4% progesterone gel applied to the forehead twice daily. The patient reported that in living with dyslexia for 52 years, they had never experienced as much stress relief in their visual system after the treatment.\nAfter 8 weeks of treatment, the individual was asked to read aloud a complex paragraph of 8 sentences from their computer screen.\nTreatment was interrupted after 10 weeks to determine the duration of benefit.\nSeven years prior to initiation of progesterone topical treatment, the patient had suffered traumatic brain injury (TBI) in an auto accident. They reported exacerbation of their vision problems as a result of the accident.\nAfter the crash they suffered from post-traumatic stress disorder triggered by loud sounds. The patient could not even listen to music because it would induce nausea. Two months after initiation of the progesterone treatment, they regained a good deal of social conformability, improved their ability to organize thoughts, eliminated their disjointed thinking, and gained the ability to write coherently.\nA person who had been diagnosed with severe reading problems in third grade was later recognized as having dyslexia. Their reading problems became exacerbated by an automobile accident in 1980, following six months of coma. In general reading was a chore. However they made a concerted effort to learn to read, starting with children's books, and is now able to read regular print. Reading issues were exemplified by the need to place a ruler below each line so that they can follow the line and find the next line, and seeing letters backwards. They are not able to read small print at all. About 4 years ago their vision became worse. They were prescribed glasses that they use during periods when vision is worse than usual, whether near, intermediate, or far in distance.\nA 1% progesterone topical composition was applied to forehead. […] The effect lasted from the time of application, around 7:30 pm to bedtime at around 11 pm.", "key": {"[1]": {"conditions": "1% progesterone topical composition to forehead"}}, "note": "“Also recorded” adds a separate entry of the source.", "data": [{"smiles": "CC(=O)[C@H]1CC[C@H]2[C@@H]3CCC4=CC(=O)CC[C@]4(C)[C@H]3CC[C@]12C", "note": "[progesterone]", "values": [{"measurement": "reading and vision (patient report)", "setting": "[1]", "result": "able to read without using; also recorded: distance vision also improved; also recorded: no longer bothered by the headlight glare; also recorded: Reapplication next morning restored vision improvements"}, {"measurement": "time until they could feel a clearing in their head", "setting": "[1]", "result": "About 5 minutes"}, {"measurement": "reading ability and visual system (patient report)", "setting": "4% progesterone gel to forehead, single applications then twice daily up to 10 weeks", "result": "effect lasting for hours; also recorded: slightly better and easier reading and line tracking; also recorded: lasted for about four hours; also recorded: able to track from one end of a line of text to the beginning of the next line without using a ruler; also recorded: read aloud with less choppiness; also recorded: accurate and fluid with only one word lapse"}, {"measurement": "executive function and stress after traumatic brain injury", "setting": "4% progesterone gel to forehead, two months", "result": "improved executive function; also recorded: much lower level of stress; also recorded: ability to do simple math in their head"}, {"measurement": "time until eyes relaxed into alignment", "setting": "gel 4% progesterone (4 mg) to forehead", "result": "≤ 60", "unit": "s"}, {"measurement": "duration of benefit after interruption", "setting": "ten days after stopping 10 weeks of 4% progesterone gel", "result": "continued benefit with only slight degradation"}]}]}
